This note sets out measurements from patent publication US9193729B2, “Inhibiting transient receptor potential ion channel TRPA1” (Cubist Pharmaceuticals, Inc., priority 2011, dated 2015).

pIC50: −log10 of the molar value.

In assay [1] the test system is formalin-induced pain behavior. Briefly: Formalin-induced pain behavior in vivo rodent model. Further details: species or system rat. The note with it: i.p. administration, in words. From the text: The data shown in Tables 3a, 3b, and 3c and FIG. 2 were obtained by administering a pharmaceutical composition comprising the compound of Formula (Ia) to rodents in the formalin-induced pain duration at various doses according to Example 5. Specifically, the data in Tables 3a, 3b, and 3c and FIG. 2 were obtained by intraperitoneal (i.p.) administration of compositions containing different concentrations of the compound of Formula (Ia), a comparator composition containing recited amounts of the comparator compound (e.g., 150 mg/kg of the comparator compound of Formula (II) in Table 3a) and a control composition containing the vehicle (e.g., without the compound of Formula (Ia) or a comparator compound).
The compound of Formula (Ia) and the comparator compounds of Formula (II) and Formula (III) were tested in the formalin-induced pain test reported by Dubuisson et al., Pain 1977 December; 4(2):161-74 (incorporated herein by reference in its entirety). Dubuisson et al. (1977) describe a method for assessing pain and analgesia in rats and cats. Briefly, dilute formalin (50 μL of 3% formalin) is injected into the plantar surface of the hind paw. […] The individual responsible for counting the pain behaviors in a particular study is blinded to the treatment groups.
Rats were treated with the HCl salt of Compound (Ia) at various doses (3, 10, 30, and 50 mg/kg, IP) or with the vehicle (IP).

The next assay addresses T1, hTRPV6 (Homo sapiens, UniProt Q9H1D0).
T1 sequence (Q9H1D0 1-765): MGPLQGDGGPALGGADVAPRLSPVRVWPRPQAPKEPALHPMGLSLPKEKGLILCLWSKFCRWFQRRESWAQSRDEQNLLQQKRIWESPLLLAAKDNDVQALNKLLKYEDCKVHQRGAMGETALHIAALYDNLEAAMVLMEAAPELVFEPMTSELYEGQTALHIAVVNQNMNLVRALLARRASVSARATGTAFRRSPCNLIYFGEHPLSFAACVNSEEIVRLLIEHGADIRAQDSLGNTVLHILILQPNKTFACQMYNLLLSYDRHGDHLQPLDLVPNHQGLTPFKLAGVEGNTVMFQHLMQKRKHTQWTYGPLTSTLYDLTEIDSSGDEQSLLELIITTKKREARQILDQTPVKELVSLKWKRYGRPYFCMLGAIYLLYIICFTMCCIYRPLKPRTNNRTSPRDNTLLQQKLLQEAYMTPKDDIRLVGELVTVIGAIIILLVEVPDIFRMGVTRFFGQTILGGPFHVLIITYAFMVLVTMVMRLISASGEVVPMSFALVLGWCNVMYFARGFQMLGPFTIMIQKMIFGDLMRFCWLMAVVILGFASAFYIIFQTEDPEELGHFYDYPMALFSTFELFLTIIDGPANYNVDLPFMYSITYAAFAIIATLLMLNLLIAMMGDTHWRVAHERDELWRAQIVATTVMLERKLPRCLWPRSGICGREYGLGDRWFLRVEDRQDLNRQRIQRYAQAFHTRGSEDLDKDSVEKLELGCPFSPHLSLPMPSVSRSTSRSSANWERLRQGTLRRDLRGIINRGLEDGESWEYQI
Briefly: Patch clamp selectivity, hTRPV6. The format is cell-based. The note with it: hTRPV6 vs TRPA1. On the procedure:
(§1) Data for TRPA1 inhibition and the selectivity of TRPA1 inhibition was obtained by this method for the compound of Formula (Ia) and included in Table 1 and Table 2. All currents were recorded in whole-cell configuration using EPC-9 and EPC-10 amplifiers and Patchmaster software (HEKA). […] The standard pipette solution consisted of 140 mM CsAsp, 10 mM EGTA, 10 mM HEPES, 2.27 mM MgCl2, 1.91 mM CaCl2, 4 mM MgATP, and 0.1-0.3 mM Na2GTP, with pH adjusted to 7.2 with CsOH. In addition, a solution containing 145 mM CsCl, 10 mM HEPES, 10 mM EGTA and 1 mM MgCl2 (pH 7.2 adjusted with CsOH) can be used. The standard bath solution contained 150 mM NaCl, 10 mM HEPES, 10 mM glucose, 4.5 mM KCl, 1 mM EGTA, 3 mM MgCl2, with pH adjusted to 7.4 with NaOH. In some instances, 2 mM CaCl2 was added in place of EGTA and the concentration of MgCl2 was reduced to 1 mM.
(§2) Data were collected either by continuous recordings at −60 mV or by applying voltage ramps from a holding potential of 0 mV every 4 s. […] Inward and outward currents were analyzed from the ramps at −80 and 80 mV, respectively. […]
(§3) Solutions were switched using a gravity-fed continuous focal perfusion system. […] Temperatures were confirmed using a thermistor (Warner Instruments, TA-29), with temperatures at the recorded cell estimated to be within +/−2° C. of those reported. […]
In general terms: Patch clamp records ionic current or voltage across a cell membrane.

The test system of assay [2] is CFA-induced cold allodynia. Briefly: Complete Freund's Adjuvant (CFA) cold allodynia rodent pain model. In kind it is in vivo, rat. The note with it: in words. On the procedure:
The compound of Formula (Ia) is also active in rodent models of pain in vivo induced by cold allodynia following chronic Complete Freund's Adjuvant-induced inflammation, as described in Example 6. […] The compound of Formula (Ia), the comparator compound of Formula (II) and ketoprofen were tested by the CFA-induced pain test method reported in del Camino et al., J. Neurosci., 30(45):15165-15174, incorporated herein by reference in its entirety. Briefly, the hind paw is sensitized to cold temperature (allodynic), by administering 0.1 mL of Complete Freund's Adjuvant (CFA) is administered to the left hind paw. 2-3 days later, the time taken for the animal to lift its CFA-injected paw is recorded compared to its un-injected normal right hind paw. […] To avoid tissue damage the maximum cut-off time is 5 minutes. Animals that are allodynic (average PWL to the first three pain behaviors<150 seconds for the CFA-injected hind paw: ˜≧50% difference between the normal and CFA-injected paw) are included in the study and subsequently randomized across treatment groups. The following day, the animals are dosed under blinded conditions. Following the 1-2 hour pre-treatment time, the post-dose PWL readings are again taken. The efficacy of the drug treatment is assessed by comparing the PWL in the drug treatment animals to those animals that receive the vehicle.

In the next assay the target is dTRPA1 (Canis lupus familiaris, UniProt A0A8I3Q1Q7). Briefly: Whole-cell patch clamp inhibition of dTRPA1. In kind it is cell-based, Dog. Particulars: dTRPA1, 10 micromolar AITC activation; read-out: IC50 Inward current. As to the method: as §1, §2, §3
Sequence of dTRPA1 (A0A8I3Q1Q7 1-1118): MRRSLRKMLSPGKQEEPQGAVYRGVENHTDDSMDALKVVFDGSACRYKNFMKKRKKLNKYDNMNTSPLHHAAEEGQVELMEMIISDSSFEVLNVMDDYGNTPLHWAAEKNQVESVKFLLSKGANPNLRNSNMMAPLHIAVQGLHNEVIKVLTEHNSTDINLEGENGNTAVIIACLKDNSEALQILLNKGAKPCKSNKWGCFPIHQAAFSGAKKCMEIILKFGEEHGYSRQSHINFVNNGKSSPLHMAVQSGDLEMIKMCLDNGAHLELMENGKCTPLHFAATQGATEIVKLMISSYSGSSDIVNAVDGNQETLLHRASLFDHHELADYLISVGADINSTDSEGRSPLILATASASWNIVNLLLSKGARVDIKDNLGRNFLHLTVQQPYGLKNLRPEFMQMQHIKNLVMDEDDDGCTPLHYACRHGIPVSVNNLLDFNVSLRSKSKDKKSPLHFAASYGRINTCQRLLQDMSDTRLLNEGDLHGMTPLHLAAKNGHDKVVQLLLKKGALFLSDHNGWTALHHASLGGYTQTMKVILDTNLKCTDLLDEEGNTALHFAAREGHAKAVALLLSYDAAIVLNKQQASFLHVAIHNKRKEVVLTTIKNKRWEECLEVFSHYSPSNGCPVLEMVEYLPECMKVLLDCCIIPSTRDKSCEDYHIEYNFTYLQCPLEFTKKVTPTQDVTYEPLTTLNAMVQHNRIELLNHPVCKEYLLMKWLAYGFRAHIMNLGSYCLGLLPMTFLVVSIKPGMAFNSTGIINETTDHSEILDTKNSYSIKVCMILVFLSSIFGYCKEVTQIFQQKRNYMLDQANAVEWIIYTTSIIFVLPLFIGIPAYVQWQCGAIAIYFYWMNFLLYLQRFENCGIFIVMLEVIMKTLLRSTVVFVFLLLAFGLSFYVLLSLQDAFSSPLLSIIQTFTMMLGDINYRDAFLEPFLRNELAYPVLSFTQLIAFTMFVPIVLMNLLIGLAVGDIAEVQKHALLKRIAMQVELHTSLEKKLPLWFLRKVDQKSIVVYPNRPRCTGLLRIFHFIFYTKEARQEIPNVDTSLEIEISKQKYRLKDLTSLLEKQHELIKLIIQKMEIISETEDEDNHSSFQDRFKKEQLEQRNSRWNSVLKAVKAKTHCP

In the case of `C[C@H]1CCCN1c1ncc(-c2cccc(NC(=O)Cn3cnc4c3c(=O)n(C)c(=O)n4C)n2)cn1` [Formula (Ia)], the “duration of pain behavior compared with vehicle” value in assay [1] is “shorter durations of pain behavior than those treated with the vehicle”. Besides, on hTRPV6, the “Fold Selectivity Compared to TRPA1” value was roughly 370 Fold. Further, in assay [2], the “effect on cold allodynia” value was “has an analgesic effect on cold allodynia”. For the same molecule, on dTRPA1, the pIC50 (usually −log10 of the IC50, conventionally taken in molar units) was roughly 7.00.
